PubChem BioAssay (NCI)
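In this assay, cells in 96-well plates receive the compound at five concentrations for 48 hours. Endpoints are linearly interpolated between the surrounding concentrations. Definition used: TGI = concentration required for complete inhibition of growth.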

Tests used:
Test in all cases: NCI tumour cell line growth inhibition, 48 h
MALME-3M melanoma = test system: MALME-3M melanoma
SK-MEL-2 melanoma = test system: SK-MEL-2 melanoma
LOX IMVI melanoma = test system: LOX IMVI melanoma
SR leukemia = test system: SR leukemia
K-562 leukemia = test system: K-562 leukemia
LXFL 529 NSCLC = test system: LXFL 529 NSCLC
HT29 colon = test system: HT29 colon
HCC-2998 colon = test system: HCC-2998 colon
M14 melanoma = test system: M14 melanoma
KM20L2 colon = test system: KM20L2 colon
NCI-H460 lung = test system: NCI-H460 lung
UACC-62 melanoma = test system: UACC-62 melanoma
MCF7 breast = test system: MCF7 breast
SNB-75 CNS = test system: SNB-75 CNS
BT-549 breast = test system: BT-549 breast
NCI/ADR-RES ovarian = test system: NCI/ADR-RES ovarian
RPMI-8226 leukemia = test system: RPMI-8226 leukemia
HCT-116 colon = test system: HCT-116 colon
DMS 114 small cell lung = test system: DMS 114 small cell lung
P388 leukemia = test system: P388 leukemia

Compound | TGI (MALME-3M melanoma) [µM] | TGI (SK-MEL-2 melanoma) [µM] | TGI (LOX IMVI melanoma) [µM] | TGI (SR leukemia) [µM] | TGI (K-562 leukemia) [µM] | TGI (LXFL 529 NSCLC) [µM] | TGI (HT29 colon) [µM] | TGI (HCC-2998 colon) [µM] | TGI (M14 melanoma) [µM] | TGI (KM20L2 colon) [µM] | TGI (NCI-H460 lung) [µM] | TGI (UACC-62 melanoma) [µM] | TGI (MCF7 breast) [µM] | TGI (SNB-75 CNS) [µM] | TGI (BT-549 breast) [µM] | TGI (NCI/ADR-RES ovarian) [µM] | TGI (RPMI-8226 leukemia) [µM] | TGI (HCT-116 colon) [µM] | TGI (DMS 114 small cell lung) [µM] | TGI (P388 leukemia) [µM]
CC1=CC[C@H](C)C(C)(C)C1/C=C/C(C)=C/CC[C@@]1(CO)[C@H](CCCO)/C(=C(/C)C=O)CC[C@]1(C)O (stereo partly specified) | 16.9 | 29.5 | 15.7 | 24.3 | 11.8 | 20.2 | 12.1 | 4.41 | 12.3 | 8.23 | 13.5 |  |  |  |  |  |  |  |  | 
C=C1C(C[C@@H]2O[C@H]3C[C@H]4O[C@@]5(C[C@@H]6O[C@]7(C[C@H](C)[C@@H]8O[C@@H]9CC(C(O)CO)O[C@@H]9C[C@@H]8O7)C[C@H](C)[C@@H]6O5)C[C@H]4O[C@H]3[C@H](C)[C@H]2O)O[C@@H](CC[C@@H]2O[C@@H](CC[C@@]34CC5O[C@H]6C(O[C@H]7CC[C@H](CC(=O)OC)O[C@@H]7[C@@H]6O3)[C@H]5O4)CC2=C)C[C@H]1C (stereo partly specified) |  |  | > 0.292 | > 1 | > 1 |  |  |  | > 1 |  |  | > 1 | > 1 | > 1 | 0.00316 | 0.0772 |  |  |  | 
COc1cccc(NC(=O)N/C(=C/c2ccc(N(CCC#N)CCC#N)cc2)NC(=O)c2cc([N+](=O)[O-])ccc2Cl)c1 |  | > 100 | > 100 | > 100 | > 100 | > 100 |  |  |  | > 100 |  | > 100 |  |  |  |  | > 100 | > 100 | > 100 | 
O=S(=O)(O)c1ccc(N=Nc2ccc(N=Nc3ccc(/C=C/c4ccc(N=[N+]([O-])c5ccc(/C=C/c6ccc(N=Nc7ccc(N=Nc8ccc(S(=O)(=O)O)cc8)c8ccccc78)cc6S(=O)(=O)O)c(S(=O)(=O)O)c5)cc4S(=O)(=O)O)c(S(=O)(=O)O)c3)c3ccccc23)cc1 | > 100 | > 100 | > 100 |  | > 100 |  | > 100 | > 100 |  | > 100 | > 100 | > 100 | > 100 | > 100 |  | > 100 | > 100 | > 100 | > 100 | > 100
